Several values for one entry are separate records, joined by “and”; a condition that tells them apart may be missing. Equal entries are not always repeated.
SMILES | melting point
O=C(Cl)c1ccc(Cl)cc1 [4-Chlorobenzoyl chloride] | 13 °C
O=Cc1cccc(O)c1O [2,3-dihydroxybenzaldehyde] | 108 °C
COC(=O)c1ccc(I)cc1 [methyl 4-iodobenzoate] | 115 °C
Cc1ccc2oc(-c3ccc(O)cc3)cc(=O)c2c1 [4'-hydroxy-6-methylflavone] | 241 °C
Cc1cc(C)cc(C=O)c1 [3,5-dimethylbenzaldehyde] | 9 °C
CCCCC=O [pentanal] | -91 °C
ICI [diiodomethane] | 6 °C
NCCCCCO [5-amino-1-pentanol] | 36 °C
CCCCCCCCCCCCCCCC(=O)OC [methyl palmitate] | 31 °C
CCC(CC)C(=O)O [2-ethylbutyric acid] | -15 °C
O=C(Oc1ccccc1)Oc1ccccc1 [diphenyl carbonate] | 79 °C
N#Cc1ccccc1C#N [phthalonitrile] | 140 °C
CC(C)(C)OC(=O)N1CCS[C@H]1C(=O)O [(S)-3-boc-thiazolidine-2-carboxylic acid] | 92 °C
O=S(=O)(O)F [Sulfurofluoridic acid] | -87.3 °C
O=C1CCC(c2ccccc2)(C2CCN(Cc3ccccc3)CC2)C(=O)N1 (centres undefined) [benzetimide] | 156 °C
CCOC(=O)c1ccc([N+](=O)[O-])o1 [ethyl 5-nitro-2-furoate] | 101 °C
Cc1cc(Cl)nc(Cl)c1C#N [2,6-dichloro-3-cyano-4-methylpyridine] | 110 °C
C[C@H](O)[C@@H](C)O [meso-2,3-butanediol] | 34.5 °C and 33 °C
Oc1c(F)c(F)cc(F)c1F [2,3,5,6-tetrafluorophenol] | 29 °C
COC1=CC(=O)CC(C)C12Oc1c(Cl)c(OC)cc(OC)c1C2=O (centres undefined) | 219 °C
NC(=O)c1ccc(Cl)cc1Cl [2,4-dichlorobenzamide] | 192 °C
O=C(O)c1ccc(C(=O)OC(=O)c2ccc(C(=O)O)cc2C(=O)O)c(C(=O)O)c1 [4,4'-(Oxydicarbonyl)diisophthalic acid] | 165 °C
OC[C@@H](O)[C@@H](O)[C@H](O)[C@H](O)CO [mannitol] | 168 °C
O=C4\C=C2/[C@]([C@H]1CC[C@@]3([C@@H](C(=O)CO)CC[C@H]3[C@@H]1CC2)C)(C)CC4 [deoxycorticosterone] | 142 °C
COC(=O)c1ccc([N+](=O)[O-])cc1 [methyl 4-nitrobenzoate] | 96 °C

SMILES | melting point
CC(O)CO (centres undefined) [Propylene glycol] | -60 °C
CCN(CC)C(=S)SSC(=S)N(CC)CC [tetraethylthiuram disulfide] | 71 °C
C=CCI [3-iodo-1-propene] | -99 °C
Oc1cc(C(F)(F)F)n2nc(-c3ccc(Cl)cc3)cc2n1 | 156 °C
CC(=O)Nc1ccc(O)cc1 [acetaminophen] | 170 °C
CCCCC=O [valeraldehyde] | -92 °C
Cc1cccc([N+](=O)[O-])c1 [3-nitrotoluene] | 16 °C
OB(O)c1cccc2ncccc12 [quinoline-5-boronic acid] | 146 °C
COC(=O)c1cccc(C(N)=O)c1 [isophthalic_acid,_methylester_amide] | 148 °C
c1ccc2c(c1)cc1ccc3cccc4ccc2c1c34 [benzo[a]pyrene] | 176 °C and 179 °C
CCN(CC)CCSC(=O)N(c1ccccc1)c1ccccc1 [phencarbamide] | 48 °C
CN(C)c1ccc(C2CNCCN2)cc1 (centres undefined) [N,N-dimethyl-4-(2-piperazinyl)aniline] | 128 °C
C=C[Si]1(C)O[Si](C)(C=C)O[Si](C)(C=C)O[Si](C)(C=C)O1 (centres undefined) [2,4,6,8-tetramethyl-2,4,6,8-tetravinylcyclotetrasiloxane] | -43 °C
N#Cc1c(F)ccc([N+](=O)[O-])c1F [2,6-difluoro-3-nitrobenzonitrile] | 53 °C
FC(F)(F)c1ccc(Cl)cc1 [4-chlorobenzotrifluoride] | -36 °C
Brc1cccc2cc[nH]c12 [7-bromoindole] | 43 °C
Nc1ccccc1CO [2-aminobenzyl alcohol] | 83 °C
CCCC(=O)CC [3-hexanone] | -55 °C
c1ccc2[nH]cnc2c1 [benzimidazole] | 170 °C and 172 °C
CC1(C)O[C@]2(C)CC[C@H]1CC2 [(1s,4s)-1,3,3-Trimethyl-2-oxabicyclo[2.2.2]octane] | 2 °C
CC(=O)N(Nc1ccccc1/N=N/c1ccccc1)c1ccccc1 [N-phenyl-N'-{2-[(E)-phenyldiazenyl]phenyl}acetohydrazide] | 103 °C
c1ccc(CCc2ccccc2)cc1 [1,2-Diphenylethane] | 51.5 °C
COC(OC)OC [trimethyl orthoformate] | -53 °C
O=C1CCC(c2ccc(Br)cc2)=NN1 [6-(4-bromophenyl)-4,5-dihydro-3(2h)-pyridazinone] | 169 °C
OC[C@@H]1[C@H](CO)[C@@H]2C=C[C@H]1C2 [5-norbornene-2-endo,3-endo-dimethanol] | 84 °C

SMILES | melting point
Clc1ccccc1C(c1ccccc1)(c1ccccc1)n1ccnc1 [clotrimazole] | 147 °C
O=C1C=C(O)C(=O)c2ccccc21 [2-Hydroxy-1,4-naphthoquinone] | 192 °C
OC[C@H]1O[C@](O)(CO)[C@@H](O)[C@@H]1O [D-fructose] | 108 °C
O=C(O)c1ccccc1OP(=O)(O)O [fosfosal] | 168 °C
O=C(O)c1c(P(c2ccccc2)c2ccccc2)ccc2ccccc12 [2-diphenylphosphino-1-naphthoic acid] | 191 °C
COc1ccc(OC)c(C(C)=O)c1 [2',5'-dimethoxyacetophenone] | 19 °C
Nc1ccc(-c2ccc(N)cc2N)c(N)c1 [biphenyl-2,2',4,4'-tetramine] | 158 °C
COc1cccc(OC)c1B(O)O [2,6-dimethoxybenzeneboronic acid] | 107 °C
BrC(Br)C(Br)Br [1,1,2,2-Tetrabromoethane] | 0 °C
C/C=C/CCC [trans-2-hexene] | -99 °C
Cc1cc(CC(=O)O)ccc1F [4-fluoro-3-methylphenylacetic acid] | 106 °C
CC(C)(C)c1cccc(O)c1 [3-tert-butylphenol] | 45 °C
c1cc2c3c(cccc3c1)CC2 [Acenaphthene] | 95 °C
CC1(C)CCCCC1 [1,1-dimethylcyclohexane] | -33 °C
CC(NC(=O)COCCN1C(=O)c2ccccc2C1=O)C(=O)NC(CCC(=O)O)C(=O)O (centres undefined) | 194 °C
COc1ccc(C(C)(C)C)cc1C(=O)O [5-tert-butyl-2-methoxybenzoic acid] | 75 °C
CCOC(=O)c1csc(C)n1 [ethyl 2-methylthiazole-4-carboxylate] | 55 °C
O=C(O)c1cc(=O)[nH]c(=O)[nH]1 [Orotic Acid] | 346 °C
CCCCC(C)CC (centres undefined) [3-methylheptane] | -121 °C
COc1ccc(N)cc1 [p-anisidine] | 59 °C
O=C[C@H](O)[C@H](O)[C@H](O)CO [D-Ribose] | 82 °C
CC(C)OC(=O)Nc1ccccc1 [isopropyl n-phenylcarbamate] | 88 °C
CCc1c(C)cccc1C [1,3-dimethyl-2-ethylbenzene] | -16 °C
Cc1cc(=O)oc2cc(O)ccc12 [7-Hydroxy-4-methyl-2H-chromen-2-one] | 191 °C
CCCNC(N)=O [N-propylurea] | 102 °C

SMILES | melting point
CCOC(=O)c1ccc(N)cc1 [ethyl_4-aminobenzoate] | 89 °C
Nc1nnc(C2CC2)s1 [2-amino-5-cyclopropyl-1,3,4-thiadiazole] | 214 °C
CC(CCc1ccccc1)NCC(O)c1ccc(O)c(C(N)=O)c1 (centres undefined) [labetalol] | 188 °C
CC(=O)C=Cc1ccc([N+](=O)[O-])o1 [3-Buten-2-one, 4- (5-nitro-2-furanyl)-] | 194 °C
C/C=C\CC [cis-2-pentene] | -151 °C
CCN(CC)c1ccc2c(C)cc(=O)oc2c1 [7-diethylamino-4-methylcoumarin] | 74 °C
C[C@H]1CCC[C@@H]1C (relative stereo) [trans-1,2-dimethylcyclopentane] | -118 °C
N#CCCCl [3-chloropropionitrile] | -50 °C
CCC(=O)OC(=O)CC [propionic anhydride] | -44 °C
OB(O)c1ccc(Cl)s1 [5-chlorothiophene-2-boronic acid] | 138 °C
CCCC [butane] | -138 °C and -137 °C
NC(=S)c1ccccn1 [pyridine-2-thiocarboxamide] | 123 °C
Nc1ccc(Nc2ccccc2)cc1 [N-phenyl-p-phenylenediamine] | 74 °C
Cc1n[nH]c(=O)[nH]c1=O [6-azathymine] | 213 °C
C[C@]12CCC(=O)C=C1CC[C@@H]1[C@@H]2[C@@H](O)C[C@@]2(C)[C@H]1CC[C@]2(O)C(=O)CO [(11beta)-11,17,21-Trihydroxypregn-4-ene-3,20-dione] | 220 °C
Cc1cc(/C=C2\SC(N(CC#N)c3ccccc3)=NC2=O)c(C)n1-c1ccc(C(F)(F)F)cc1 [OSM-S-42] | 182 °C
CCCCCc1ccc(B(O)O)cc1 [4-n-pentylbenzeneboronic acid] | 83 °C
Clc1ccc(SSc2ccc(Cl)cc2)cc1 [bis(4-chlorophenyl) disulfide] | 73 °C
CC[C@H](C)C(=O)O[C@H]1C[C@@H](C)C=C2C=C[C@H](C)[C@H](CC[C@@H]3C[C@@H](O)CC(=O)O3)[C@H]21 [lovastatin] | 174 °C
Nc1ccccc1 [aniline] | -6 °C (4×) and -6.2 °C (2×)
CCCCCCCCCC(C)=O [2-undecanone] | 12 °C
CC(=O)Nc1ccc(C(=O)O)cc1 [4-acetamidobenzoic_acid] | 259 °C
O=C(O)C1=Cc2cc(Cl)ccc2OC1 [6-chloro-2h-chromene-3-carboxylic acid] | 243 °C
CCC(=O)c1ccc(O)cc1O [2',4'-dihydroxypropiophenone] | 100 °C
